Laboratory results taken from patent US20260364030A1, “NOVEL SELECTIVE INHIBITORS OF LYSYL OXIDASES” (Syntara Limited, priority 2022, published 2026).

Legend:
Assay type in all cases: biochemical
LOXL1 = molecular target: T1, LOXL1 (Homo sapiens, UniProt Q08397); test: LOXL1 inhibition, Amplex Red oxidation assay; settings: 30 min incubation with enzyme at 37 °C
T1 sequence (Q08397 96-574): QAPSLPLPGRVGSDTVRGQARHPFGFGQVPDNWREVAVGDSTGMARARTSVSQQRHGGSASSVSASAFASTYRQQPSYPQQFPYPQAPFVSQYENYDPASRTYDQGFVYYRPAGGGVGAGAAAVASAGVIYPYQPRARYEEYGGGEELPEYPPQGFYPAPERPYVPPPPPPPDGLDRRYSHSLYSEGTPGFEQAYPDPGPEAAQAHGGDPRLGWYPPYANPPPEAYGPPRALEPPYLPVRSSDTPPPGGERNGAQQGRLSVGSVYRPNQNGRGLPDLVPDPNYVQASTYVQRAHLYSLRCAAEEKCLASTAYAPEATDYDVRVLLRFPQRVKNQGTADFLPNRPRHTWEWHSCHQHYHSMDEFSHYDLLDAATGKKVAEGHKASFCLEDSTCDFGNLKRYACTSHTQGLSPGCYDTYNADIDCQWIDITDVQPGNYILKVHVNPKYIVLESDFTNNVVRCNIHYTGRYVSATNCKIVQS
Procedure: (§1) LOX and LOXL protein family members can be acquired as recombinant active proteins from commercial sources, or extracted from animal tissues like bovine aorta, tendons, pig skin; or prepared from cell cultures. The inhibitory effects of the compounds of the present invention were tested against the given LOX or LOXL preparation using a method based on the detection of hydrogen peroxide with an Amplex Red oxidation assay [Zhou et al, 1997]. The assay was developed using either 384 or 96 well format. Briefly, in a standard black, clear bottom 384 well plate assay 25 µL of a dilution of any of the isoenzymes and orthologues in 1.2 M urea, 50 mM sodium borate buffer (pH 8.2) were added into each well in the presence of […] and 0.5 mM pargyline (to inhibit SSAO and MAO-B and MAO-A, respectively; not necessary if the enzyme is from a recombinant or purified form). Test compounds were dissolved in DMSO and tested in a Concentration Response Curve (CRC) with 11 data points, typically in the micromolar or nanomolar range after incubation with the enzyme for 30 min at 37 °C. […] The fluorescence (RFU) was read every 2.5 min for 30 min at 37 °C, excitation 544 nm and emission 590 (Optima; BMG labtech). The slope/min of the kinetics for each well was calculated using MARS data analysis software (BMG labtech) and this value was used to deduce the IC50 value (Dotmatics). […]

Human recombinant LOXL3 = Human recombinant LOXL3 (Homo sapiens, UniProt P58215); test: LOXL3 inhibition, Amplex Red oxidation assay; settings: 30 min incubation with enzyme at 37 °C
Sequence of Human recombinant LOXL3 (P58215 26-753): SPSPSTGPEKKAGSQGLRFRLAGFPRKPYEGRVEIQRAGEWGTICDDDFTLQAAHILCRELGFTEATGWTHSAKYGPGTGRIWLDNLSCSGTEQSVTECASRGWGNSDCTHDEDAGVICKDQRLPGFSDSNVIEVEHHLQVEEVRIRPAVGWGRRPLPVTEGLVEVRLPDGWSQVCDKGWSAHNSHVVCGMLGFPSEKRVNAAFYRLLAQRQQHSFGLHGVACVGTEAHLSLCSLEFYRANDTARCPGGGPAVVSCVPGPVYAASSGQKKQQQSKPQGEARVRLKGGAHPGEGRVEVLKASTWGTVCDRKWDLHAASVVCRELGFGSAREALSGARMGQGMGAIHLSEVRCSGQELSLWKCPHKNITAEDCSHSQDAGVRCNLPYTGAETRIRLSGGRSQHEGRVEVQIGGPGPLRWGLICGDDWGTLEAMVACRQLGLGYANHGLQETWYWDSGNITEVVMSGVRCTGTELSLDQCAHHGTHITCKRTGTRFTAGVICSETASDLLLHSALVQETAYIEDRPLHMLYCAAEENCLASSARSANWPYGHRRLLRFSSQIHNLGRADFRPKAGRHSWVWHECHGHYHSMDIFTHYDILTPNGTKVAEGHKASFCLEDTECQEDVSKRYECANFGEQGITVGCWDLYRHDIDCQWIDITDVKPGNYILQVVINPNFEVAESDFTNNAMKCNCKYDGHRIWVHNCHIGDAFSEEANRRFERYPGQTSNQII
Procedure: as §1

Bovine LOX = molecular target: T2, Bovine LOX (Bos taurus, UniProt P33072); test: LOX inhibition, hydrogen peroxide Amplex Red oxidation assay
T2 sequence (P33072 170-418): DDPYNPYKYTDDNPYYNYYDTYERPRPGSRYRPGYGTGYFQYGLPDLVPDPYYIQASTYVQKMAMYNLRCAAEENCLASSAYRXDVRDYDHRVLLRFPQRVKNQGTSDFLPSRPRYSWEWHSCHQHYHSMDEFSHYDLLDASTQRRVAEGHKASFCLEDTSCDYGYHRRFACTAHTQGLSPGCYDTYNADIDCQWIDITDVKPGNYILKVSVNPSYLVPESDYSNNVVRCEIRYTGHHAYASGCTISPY
Procedure: LOX and LOXL protein family members can be acquired as recombinant active proteins from commercial sources, or extracted from animal tissues like bovine aorta, tendons, pig skin; or prepared from cell cultures. The inhibitory effects of the compounds of the present invention were tested against the given LOX or LOXL preparation using a method based on the detection of hydrogen peroxide with an Amplex Red oxidation assay [Zhou et al, 1997]. The assay was developed using either 384 or 96 well format. Briefly, in a standard black, clear bottom 384 well plate assay 25 µL of a dilution of any of the isoenzymes and orthologues in 1.2 M urea, 50 mM sodium borate buffer (pH 8.2) were added into each well in the presence of […] and 0.5 mM pargyline (to inhibit SSAO and MAO-B and MAO-A, respectively; not necessary if the enzyme is from a recombinant or purified form). […] of a reaction mixture containing twice the KM concentration of putrescine (Sigma Aldrich, e.g. 20 mM for LOX and LOXL1 or 10 mM for LOXL2 and 4 mM for LOXL3 and LOXL4), 120 µM Amplex Red (Thermo Fisher Scientific) and 1.5 U/mL horseradish peroxidase (Sigma Aldrich) prepared in 1.2 M urea, 50 mM sodium borate buffer (pH 8.2) were then added to the corresponding wells. The above volumes were doubled in the case of 96 wells plate. The fluorescence (RFU) was read every 2.5 min for 30 min at 37 °C, excitation 544 nm and emission 590 (Optima; BMG labtech). The slope/min of the kinetics for each well was calculated using MARS data analysis software (BMG labtech) and this value was used to deduce the IC50 value (Dotmatics). The ability of the inventive compounds to inhibit the amine oxidase activity of LOX and other family members is shown in Table 5.

[1] = 30 min incubation with enzyme at 37 °C

Row | IC50 (Bovine LOX; 2 h incubation with enzyme at 37 °C) [µM] | SMILES | IC50 (LOXL1) [µM] | IC50 (Human recombinant LOXL3) [µM] | IC50 (Bovine LOX; [1]) [µM]
1 |  | N#CCCN [BAPN, β-aminopropionitrile, reference compound] | 2.5 | 0.5 | 2.3
2 | < 5 | NC/C(=C\F)CS(=O)(=O)c1ccccc1 [Compound 1, (E)-3-fluoro-2-((phenylsulfonyl)methyl)prop-2-en-1-amine] | 13.2 | 5.9 | 10
